Data reported in patent US9708259B2 (Hoffmann-La Roche Inc., priority 2013, dated 2017).
Where a chain is given by its changes, count along the chain named.

Assays:
[1] = cited from earlier work
APP processing = settings: cited from earlier work
human M1 = molecular target: T1, human M1 (Homo sapiens, UniProt P11229); assay: M1 PAM assay (FLIPR intracellular calcium), human M1; assay type: cell-based; settings: CHO human M1 cells, FLIPR Ca2+, with EC20 of acetylcholine; first value of the cell; read-out: hM1 EC50
T1 construct: expressed in transfected cells; host or cells: CHO cells
T1 sequence (P11229 1-460): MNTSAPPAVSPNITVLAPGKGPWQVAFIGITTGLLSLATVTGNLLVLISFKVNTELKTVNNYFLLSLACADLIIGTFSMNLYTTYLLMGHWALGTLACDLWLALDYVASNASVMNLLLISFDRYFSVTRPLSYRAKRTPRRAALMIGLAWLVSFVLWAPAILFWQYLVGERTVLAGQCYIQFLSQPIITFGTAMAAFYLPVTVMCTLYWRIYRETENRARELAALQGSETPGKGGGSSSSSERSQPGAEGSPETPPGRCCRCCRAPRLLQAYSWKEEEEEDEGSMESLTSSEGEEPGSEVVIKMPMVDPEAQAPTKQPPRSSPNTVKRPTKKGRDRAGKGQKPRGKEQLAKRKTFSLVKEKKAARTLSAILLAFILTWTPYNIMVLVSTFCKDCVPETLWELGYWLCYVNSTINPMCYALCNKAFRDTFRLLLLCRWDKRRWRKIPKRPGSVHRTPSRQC
In short: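 CHO cells expressing M1, Fluo-4AM-loaded, in HEPES/probenecid HBSS pH 7.4, 1% DMSO final. Compounds pre-incubated 2 min for agonist activity versus 30 nM acetylcholine control. For PAM activity, acetylcholine EC20 added after the 2 min pre-incubation, then 2 min more before FLIPR intracellular Ca2+ read.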

ratM1 = molecular target: T2, ratM1 (Rattus norvegicus, UniProt P08482); assay: M1 PAM assay (FLIPR intracellular calcium), rat M1; assay type: cell-based; settings: rat M1, FLIPR Ca2+; second value of the cell; read-out: ratM1 EC50
T2 construct: expressed in transfected cells; host or cells: CHO cells (stated generally for the assay, not specifically for rat M1)
T2 sequence (P08482 1-460): T1 sequence (P11229 1-460) with A5V, T254S, P309S, R320K, A337G, I413V

Structure (SMILES)	EC50 (human M1) [nM]	EC50 (ratM1) [nM]	further results
CCCCCCOc1nsnc1C1=CCCN(C)C1 [Xanomeline]			cognitive scores and psychotic-like behaviors in patients with Alzheimer's disease ([1]; clinical studies, patients with Alzheimer's disease (AD)): improved cognitive scores and reduced psychotic-like behaviors; efficacy on symptoms in schizophrenic patients ([1]; clinical studies, schizophrenic patients): robust efficacy on positive, negative and cognitive symptoms; adverse effects (sweating, salivation, gastrointestinal distress, bradycardia) ([1]; clinical, attributed to insufficient M1 subtype selectivity): always associated with adverse effects
Cc1cc(NC(=O)CS(=O)(=O)c2cn(Cc3cc(Br)ccc3F)c3ccccc23)no1 [ML169]			non-amyloidogenic APP processing (APP processing): promote non-amyloidogenic APP processing
Cc1ccc(F)c2c(C(=O)NC3CCOCC3)cn(Cc3ccc(-c4cnn(C)c4)cc3F)c12 [Example 133, 4-fluoro-1-(2-fluoro-4-(1-methyl-1H-pyrazol-4-yl)benzyl)-7-methyl-N-(tetrahydro-2H-pyran-4-yl)-1H-indole-3-carboxamide]	48	84	
CNC(=O)c1ccc(Cn2cc(C(=O)NC3CCCCCC3)c3c(F)cccc32)cc1 [Example 115, N-cycloheptyl-4-fluoro-1-[[4-(methylcarbamoyl)phenyl]methy]indole-3-carboxamide]	50	28	
CNC(=O)c1ccc(Cn2cc(C(=O)N[C@H]3CCCC[C@@H]3O)c3c(F)cccc32)cn1 [Example 87, 4-fluoro-N-((1S,2S)-2-hydroxycyclohexyl)-1-((6-(methylcarbamoyl)pyridin-3-yl)methyl)-1H-indole-3-carboxamide]	73.4	120	
COc1ccc(F)c2c(C(=O)N[C@H]3CCCC[C@@H]3O)cn(Cc3ccc(-c4cnn(C)c4)cc3)c12 [Example 148, 4-fluoro-N-((1S,2S)-2-hydroxycyclohexyl)-7-methoxy-1-(4-(1-methyl-1H-pyrazol-4-yl)benzyl)-1H-indole-3-carboxamide]	84	139	
O=C(N[C@H]1CCOC[C@@H]1O)c1cn(Cc2ccc(-n3cncn3)nc2)c2cccc(F)c12 [Example 78, 1-((6-(1H-1,2,4-triazol-1-yl)yridine-3-yl)methyl)-4-fluoro-N-((3R,4S)-3-hydroxytetrahydro-2H-pyran-4-yl)-1H-indole-3-carboxamide]	522	728	
Cc1ccc(F)c2c(C(=O)NC3CCCOC3)cn(Cc3ccc(-c4cnn(C)c4)cc3)c12 (centres unmarked) [Example 48, 4-fluoro-7-methyl-1-(4-(1-methyl-1H-pyrazol-4-yl)benzyl)-N-(tetrahydro-2H-pyran-3-yl)-1H-indole-3-carboxamide]	251	528	
Cn1cc(-c2ccc(Cn3nc(C(=O)N[C@H]4CCOC[C@@H]4O)c4c(F)ccc(F)c43)cn2)cn1 [Example 74, 4,7-difluoro-N-((3R,4S)-3-hydroxytetrahydro-2H-pyran-4-yl)-1-((6-(1-methyl-1H-pyrazol-4-yl)yridine-3-yl)methyl)-1H-indazole-3-carboxamide]	54.8	48.9	
Cn1cc(-c2ccc(Cn3cc(C(=O)N[C@H]4COCC[C@@H]4O)c4c(F)cccc43)c(F)c2)cn1 [Example 22, 4-fluoro-1-(2-fluoro-4-(1-methyl-1H-pyrazol-4-yl)benzyl)-N-((3S,4S)-4-hydroxytetrahydro-2H-pyran-3-yl)-1H-indole-3-carboxamide]	17.8	60.5	
Cn1cc(-c2ccc(Cn3cc(C(=O)N[C@@H]4C[C@@H]5CC[C@H]4O5)c4c(F)cccc43)c(F)c2)cn1 (relative stereo) [Example 104, N-((endo)-7-oxabicyclo[2.2.1]heptan-2-yl)-4-fluoro-1-(2-fluoro-4-(1-methyl-1H-pyrazol-4-yl)benzyl)-1H-indole-3-carboxamide]	165	196	
CNC(=O)c1ccc(Cn2cc(C(=O)NC3CCOCC3)c3c(F)cccc32)c(F)c1 [Example 164, 4-Fluoro-1-(2-fluoro-4-(methylcarbamoyl)benzyl)-N-(tetrahydro-2H-pyran-4-yl)-1H-indole-3-carboxamide]	48	88	
Cn1cc(-c2ccc(Cn3cc(C(=O)NC4CCOCC4O)c4c(F)c(F)c(F)c(F)c43)cc2)cn1 (single isomer, unassigned) [Example 62, 4,5,6,7-Tetrafluoro-N-((3S,4R) or (3R,4S))-3-hydroxytetrahydro-2H-pyran-4-yl)-1-(4-(1-methyl-1H-pyrazol-4-yl)benzyl)-1H-indole-3-carboxamide]	433	563	
Cc1cn(-c2ccc(Cn3cc(C(=O)NC4CCOCC4)c4c(F)cccc43)cc2)cn1 [Example 67, 4-fluoro-1-(4-(4-methyl-1H-imidazol-1-yl)benzyl)-N-(tetrahydro-2H-pyran-4-yl)-1H-indole-3-carboxamide]	82.8	183	
COc1ccc(F)c2c(C(=O)N[C@H]3CCCC[C@@H]3O)cn(Cc3ccc(-c4cnn(C)c4)cc3F)c12 [Example 149, 4-fluoro-1-(2-fluoro-4-(1-methyl-1H-pyrazol-4-yl)benzyl)-N-((1S,2S)-2-hydroxycyclohexyl)-7-methoxy-1H-indole-3-carboxamide]	438	348	
CNC(=O)c1ccc(Cn2cc(C(=O)N[C@H]3CCCC[C@@H]3O)c3c(F)cccc32)c(F)c1 [Example 86, 4-fluoro-1-(2-fluoro-4-(methylcarbamoyl)benzyl)-N-((1S,2S)-2-hydroxycyclohexyl)-1H-indole-3-carboxamide]	6.91	13	
CNC(=O)c1ccc(Cn2cc(C(=O)NC3CCS(=O)(=O)CC3)c3c(F)cccc32)cc1 [Example 125, N-(1,1-dioxothian-4-yl)-4-fluoro-1-[[4-(methylcarbamoyl)phenyl]methyl]indole-3-carboxamide]	166	623	
Cn1cc(-c2ccc(Cn3nc(C(=O)N[C@H]4CCCC[C@@H]4O)c4c(F)cccc43)c(F)c2)cn1 [Example 3, 4-fluoro-1-(2-fluoro-4-(1-methyl-1H-pyrazol-4-yl)benzyl)-N-((1S,2S)-2-hydroxycyclohexyl)-1H-indazole-3-carboxamide]	25.2	90.6	
Cn1cc(-c2ccc(Cn3cc(C(=O)NC4CC(F)(F)C4)c4c(F)cccc43)cc2)cn1 [Example 9, N-(3,3-difluorocyclobutyl)-4-fluoro-1-(4-(1-methyl-1H-pyrazol-4-yl)benzyl)-1H-indole-3-carboxamide]	365	411	
Cn1cc(-c2ccc(Cn3cc(C(=O)N[C@H]4CCCC[C@@H]4O)c4c(F)cc(F)cc43)c(F)c2)cn1 [Example 5, 4,6-difluoro-1-(2-fluoro-4-(1-methyl-1H-pyrazol-4-yl)benzyl)-N-((1S,2S)-2-hydroxycyclohexyl)-1H-indole-3-carboxamide]	83.8	231	
Cn1cc(-c2ccc(Cn3cc(C(=O)N[C@H]4CCCC[C@@H]4O)c4c(F)c(F)c(F)c(F)c43)c(F)c2)cn1 [Example 26, 4,5,6,7-Tetrafluoro-1-(2-fluoro-4-(1-methyl-1H-pyrazol-4-yl)benzyl)-N-((1S,2S)-2-hydroxycyclohexyl)-1H-indole-3-carboxamide]	80.6	201	
Cn1cc(-c2ccc(Cn3cc(C(=O)N[C@H]4CCCC[C@@H]4O)c4c(F)cccc43)cn2)cn1 [Example 30, 4-fluoro-N-((1S,2S)-2-hydroxycyclohexyl)-1-((6-(1-methyl-1H-pyrazol-4-yl)pyridine-3-yl)methyl)-1H-indole-3-carboxamide]	13.2	14.1	
